Key:
[1] = target: T1, MRGPRX2 receptor (Homo sapiens, UniProt Q96LB1); assay: Fluo-4 calcium assay in MRGPRX2 expressing Chem-1 cells; type: cell-based; settings: Chem-1 cells, Fluo-4
T1 construct: host or cells: Chem-1 cells (G418-selected)
T1 sequence (Q96LB1 1-330): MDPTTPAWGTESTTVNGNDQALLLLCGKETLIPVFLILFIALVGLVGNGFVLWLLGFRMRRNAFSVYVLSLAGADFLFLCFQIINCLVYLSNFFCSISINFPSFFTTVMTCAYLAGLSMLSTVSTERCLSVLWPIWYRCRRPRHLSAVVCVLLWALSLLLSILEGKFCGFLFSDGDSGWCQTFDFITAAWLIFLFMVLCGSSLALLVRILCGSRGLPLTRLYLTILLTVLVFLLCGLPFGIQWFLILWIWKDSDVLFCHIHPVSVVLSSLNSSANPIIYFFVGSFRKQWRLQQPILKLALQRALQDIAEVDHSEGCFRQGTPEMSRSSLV

[2] = test system: control (non-MRGPRX2 expressing) Chem-1 cells; settings: parent Chem-1 cells, Fluo-4
Method: MRGPRX2 expressing and control (non-MRGPRX2 expressing) Chem-1 cells lines were obtained from Discovery Services, EuroFins. Cells were cultured in Dulbecco's Modified Eagle Medium (DMEM) high glucose medium (4.5 g/L) with 10% fetal bovine serum (FBS), non-essential amino acids, and N-2-hydroxyethylpiperazine-N′-2-ethanesulfonic acid (HEPES) buffer (pH 7.0-7.6). Geneticin (G418) was used for selection of MRGPRX2-expressing Chem-1 cells. Cells were maintained at 37° C. at 5% CO2. Cells were seeded to a glass bottom 96-well plates at a density of 50,000 per well (Cellvis). Cells were loaded with Fluo-4 AM for 30 minutes at 37° C. at a concentration of 2.5 μM. Cells were washed once with Dulbecco's phosphate buffered saline (DPBS). Cells were rested at room temperature for 30 minutes before use and washed with DPBS. Cells were resuspended in 50 μl phosphate buffered saline (PBS) with calcium and magnesium. […] Plates were read immediately with a Biotek plate reader. Readings were taken every 6 seconds for 2 minutes.

C[C@H](CCC(=O)O)C[C@H](C)C[C@H](C)C(=O)/C=C(\O)[C@H](C)C[C@H](C)C/C=C/[C@@H](C)[C@@H](O)[C@@H](C)[C@@H](O)C[C@@H]1CC[C@@](C)([C@H]2CC[C@@](C)([C@@H](C)O)O2)O1 [Ionomycin]
activation of the MRGPRX2 expressing cells (calcium mobilization) [1]: generates a calcium response | effect on cells lacking the MRGPRX2 receptor (calcium mobilization) [2]: generates a calcium response

— patent publication US20240299486A1, “ADDRESSING INJECTION SITE REACTIONS ASSOCIATED WITH THE ADMINISTRATION OF ELAMIPRETIDE” (STEALTH BIOTHERAPEUTICS INC., priority 2022, published 2024)
